The source of these data is patent publication US11319299B2, “Substituted carboxamides as inhibitors of WDR5 protein-protein binding” (PROPELLON THERAPEUTICS INC., priority 2016, dated 2022).

This test deals with WDR5 (Homo sapiens (Human), UniProt P61964). Kind of test: Surface Plasmon Resonance (SPR) assay, KD and residence time. Type of test: binding. To be noted: surface plasmon resonance (SPR) assay; read-out: WDR5 binding affinity (KD). A general note: In SPR one partner is held on a chip, and binding of the other changes the refractive index at the surface.
On to `C[C@@H]1CN(c2cc(F)c(-c3cccc(CN(C)C4COC4)c3)cc2NC(=O)c2c[nH]c(=O)cc2C(F)(F)F)C[C@H](C)N1C` [Example 118, N-[4-fluoro-5-[3-[[methyl(oxetan-3-yl)amino]methyl]phenyl]-2-[(3R,5S)-3,4,5-trimethylpiperazin-1-yl]phenyl]-6-oxo-4-(trifluoromethyl)-1H-pyridine-3-carboxamide], for which the Kd (in general, the constant that tells how readily two partners part at equilibrium) was 4.53 nM.

As for `C[C@@H]1CN(c2cc(F)c(-c3cccc(CN4CCC(F)CC4)c3)cc2NC(=O)c2c[nH]c(=O)cc2C(F)(F)F)C[C@H](C)N1C` [Example 119, N-[4-fluoro-5-[3-[(4-fluoropiperidin-1-yl)methyl]phenyl]-2-[(3R,5S)-3,4,5-trimethylpiperazin-1-yl]phenyl]-6-oxo-4-(trifluoromethyl)-1H-pyridine-3-carboxamide], the Kd is 5.12 nM.

For the compound `O=C(Nc1cc(-c2cnc(N3CCOCC3)nc2)c(F)cc1N1CCN2CCOCC2C1)c1c[nH]c(=O)cc1C(F)(F)F` (stereo not shown) [Example 120, N-[2-(3,4,6,7,9,9a-hexahydro-1H-pyrazino[2,1-c][1,4]oxazin-8-yl)-4-fluoro-5-(2-morpholin-4-ylpyrimidin-5-yl)phenyl]-6-oxo-4-(trifluoromethyl)-1H-pyridine-3-carboxamide], the Kd was over 200 nM.

In the case of `C[C@@H]1CN(c2cc(F)c(-c3cnc(O)c(C#N)c3)cc2NC(=O)c2c[nH]c(=O)cc2C(F)(F)F)C[C@H](C)N1C` [Example 123, N-[5-(5-cyano-6-hydroxypyridin-3-yl)-4-fluoro-2-[(3R,5S)-3,4,5-trimethylpiperazin-1-yl]phenyl]-6-oxo-4-(trifluoromethyl)-1H-pyridine-3-carboxamide], the Kd is 9.88 nM.

For `C[C@@H]1CN(c2cc(F)c(-c3ccc(N4CCOCC4)c(F)c3)cc2NC(=O)c2c[nH]c(=O)cc2C(F)(F)F)C[C@H](C)N1C` [Example 124, N-[4-fluoro-5-(3-fluoro-4-morpholin-4-ylphenyl)-2-[(3R,5S)-3,4,5-trimethylpiperazin-1-yl]phenyl]-6-oxo-4-(trifluoromethyl)-1H-pyridine-3-carboxamide], the Kd worked out at 0.439 nM.

For `C[C@@H]1CN(c2cc(F)c(-c3cccc(OCC4CC4)c3)cc2NC(=O)c2c[nH]c(=O)cc2C(F)(F)F)C[C@H](C)N1C` [Example 125, N-[5-[3-(cyclopropylmethoxy)phenyl]-4-fluoro-2-[(3R,5S)-3,4,5-trimethylpiperazin-1-yl]phenyl]-6-oxo-4-(trifluoromethyl)-1H-pyridine-3-carboxamide], the equilibrium dissociation constant (Kd) came out at 10.9 nM.

Consider `C[C@@H]1CN(c2cc(F)c(-c3cnc(N4CCOCC4)nc3)cc2NC(=O)c2cccc(N(C)C)c2)C[C@H](C)N1C` [Example 126, 3-(dimethylamino)-N-[4-fluoro-5-(2-morpholin-4-ylpyrimidin-5-yl)-2-[(3R,5S)-3,4,5-trimethylpiperazin-1-yl]phenyl]benzamide], for which the Kd was 3500 nM.

For `C[C@@H]1CN(c2cc(F)c(-c3cnc(N4CCOCC4)nc3)cc2NC(=O)c2cocn2)C[C@H](C)N1C` [Example 127, N-[4-fluoro-5-(2-morpholin-4-ylpyrimidin-5-yl)-2-[(3R,5S)-3,4,5-trimethylpiperazin-1-yl]phenyl]-1,3-oxazole-4-carboxamide], the Kd is over 200 nM.

As to `CC(C)Oc1ncc(-c2cc(NC(=O)c3c[nH]c(=O)cc3C(F)(F)F)c(N3C[C@@H](C)N(C)[C@@H](C)C3)cc2F)cn1` [Example 130, N-[4-fluoro-5-(2-propan-2-yloxypyrimidin-5-yl)-2-[(3R,5S)-3,4,5-trimethylpiperazin-1-yl]phenyl]-6-oxo-4-(trifluoromethyl)-1H-pyridine-3-carboxamide], the dissociation constant Kd is 0.656 nM.

Take `C[C@@H]1CN(c2cc(F)c(-c3ccc(C#N)nc3)cc2NC(=O)c2c[nH]c(=O)cc2C(F)(F)F)C[C@H](C)N1C` [Example 131, N-[5-(6-cyanopyridin-3-yl)-4-fluoro-2-[(3R,5S)-3,4,5-trimethylpiperazin-1-yl]phenyl]-6-oxo-4-(trifluoromethyl)-1H-pyridine-3-carboxamide]: the Kd was determined as 2.43 nM.

On to `Cc1cc(-c2cc(NC(=O)c3c[nH]c(=O)cc3C(F)(F)F)c(N3C[C@@H](C)N(C)[C@@H](C)C3)cc2F)cnc1C#N` [Example 132, N-[5-(6-cyano-5-methylpyridin-3-yl)-4-fluoro-2-[(3R,5S)-3,4,5-trimethylpiperazin-1-yl]phenyl]-6-oxo-4-(trifluoromethyl)-1H-pyridine-3-carboxamide], for which the Kd stood at 1.4 nM.

Regarding `C[C@@H]1CN(c2cc(F)c(-c3ccnc(C#N)c3)cc2NC(=O)c2c[nH]c(=O)cc2C(F)(F)F)C[C@H](C)N1C` [Example 133, N-[5-(2-cyanopyridin-4-yl)-4-fluoro-2-[(3R,5S)-3,4,5-trimethylpiperazin-1-yl]phenyl]-6-oxo-4-(trifluoromethyl)-1H-pyridine-3-carboxamide], the Kd amounted to 1.33 nM.

For `COc1cc(-c2cc(NC(=O)c3c[nH]c(=O)cc3C(F)(F)F)c(N3C[C@@H](C)N(C)[C@@H](C)C3)cc2F)cc(C(F)(F)F)n1` [Example 134, N-[4-fluoro-5-[2-methoxy-6-(trifluoromethyl)pyridin-4-yl]-2-[(3R,5S)-3,4,5-trimethylpiperazin-1-yl]phenyl]-6-oxo-4-(trifluoromethyl)-1H-pyridine-3-carboxamide], the Kd was 1.01 nM.

As for `COc1cc(-c2cc(NC(=O)c3c[nH]c(=O)cc3C(F)(F)F)c(N3C[C@@H](C)N(C)[C@@H](C)C3)cc2F)cc(C)n1` [Example 135, N-[4-fluoro-5-(2-methoxy-6-methylpyridin-4-yl)-2-[(3R,5S)-3,4,5-trimethylpiperazin-1-yl]phenyl]-6-oxo-4-(trifluoromethyl)-1H-pyridine-3-carboxamide], the Kd is 2.81 nM.

Consider `COc1ncc(-c2cc(NC(=O)c3c[nH]c(=O)cc3C(F)(F)F)c(N3C[C@@H](C)N(C)[C@@H](C)C3)cc2F)cc1C(F)(F)F` [Example 136, N-[4-fluoro-5-[6-methoxy-5-(trifluoromethyl)pyridin-3-yl]-2-[(3R,5S)-3,4,5-trimethylpiperazin-1-yl]phenyl]-6-oxo-4-(trifluoromethyl)-1H-pyridine-3-carboxamide], for which the Kd was determined as 0.463 nM.

Turning to `COc1cc(C#N)c(C(=O)Nc2cc(-c3cnc(N4CCOCC4)nc3)c(F)cc2N2C[C@@H](C)N(C)[C@@H](C)C2)cn1` [Example 137, 4-cyano-N-[4-fluoro-5-(2-morpholin-4-ylpyrimidin-5-yl)-2-[(3R,5S)-3,4,5-trimethylpiperazin-1-yl]phenyl]-6-methoxypyridine-3-carboxamide], the Kd turned out to be 19.7 nM.

For the compound `C[C@@H]1CN(c2cc(F)c(-c3cnc(N4CCOCC4)nc3)cc2NC(=O)c2c(Cl)cccc2Cl)C[C@H](C)N1C` [Example 139, 2,6-dichloro-N-[4-fluoro-5-(2-morpholin-4-ylpyrimidin-5-yl)-2-[(3R,5S)-3,4,5-trimethylpiperazin-1-yl]phenyl]benzamide], the Kd came out at 5.86 nM.

With `C[C@@H]1CN(c2cc(F)c(-c3cnc(N4CCOCC4)nc3)cc2NC(=O)c2cccc(Cl)c2F)C[C@H](C)N1C` [Example 140, 3-chloro-2-fluoro-N-[4-fluoro-5-(2-morpholin-4-ylpyrimidin-5-yl)-2-[(3R,5S)-3,4,5-trimethylpiperazin-1-yl]phenyl]benzamide], the Kd came out at 18.8 nM.

On to `C[C@@H]1CN(c2cc(F)c(-c3cnc(N4CCOCC4)nc3)cc2NC(=O)c2ccccc2C(F)(F)F)C[C@H](C)N1C` [Example 141, N-[4-fluoro-5-(2-morpholin-4-ylpyrimidin-5-yl)-2-[(3R,5S)-3,4,5-trimethylpiperazin-1-yl]phenyl]-2-(trifluoromethyl)benzamide], for which the Kd is 16.2 nM.

`C[C@@H]1CN(c2cc(F)c(-c3ccc(N(C)C)nc3)cc2NC(=O)c2c[nH]c(=O)cc2C(F)(F)F)C[C@H](C)N1C` [Example 142, N-[5-[6-(dimethylamino)pyridin-3-yl]-4-fluoro-2-[(3R,5S)-3,4,5-trimethylpiperazin-1-yl]phenyl]-6-oxo-4-(trifluoromethyl)-1H-pyridine-3-carboxamide]: the Kd was 0.985 nM.

As for `C[C@@H]1CN(c2cc(F)c(C3=CCN(C(=O)OC(C)(C)C)CC3)cc2NC(=O)c2c[nH]c(=O)cc2C(F)(F)F)C[C@H](C)N1C` [Example 143, tert-butyl 4-[2-fluoro-5-[[6-oxo-4-(trifluoromethyl)-1H-pyridine-3-carbonyl]amino]-4-[(3R,5S)-3,4,5-trimethylpiperazin-1-yl]phenyl]-3,6-dihydro-2H-pyridine-1-carboxylate], the Kd was 1.24 nM.

Turning to `C[C@@H]1CN(c2cc(F)c(-c3ccc(C(F)(F)F)cc3)cc2NC(=O)c2c[nH]c(=O)cc2C(F)(F)F)C[C@H](C)N1C` [Example 144, N-[4-fluoro-2-[(3R,5S)-3,4,5-trimethylpiperazin-1-yl]-5-[4-(trifluoromethyl)phenyl]phenyl]-6-oxo-4-(trifluoromethyl)-1H-pyridine-3-carboxamide], the Kd was 6.06 nM.

With `C[C@@H]1CN(c2cc(F)c(-c3ccc(OC(F)(F)F)cc3)cc2NC(=O)c2c[nH]c(=O)cc2C(F)(F)F)C[C@H](C)N1C` [Example 145, N-[4-fluoro-2-[(3R,5S)-3,4,5-trimethylpiperazin-1-yl]-5-[4-(trifluoromethoxy)phenyl]phenyl]-6-oxo-4-(trifluoromethyl)-1H-pyridine-3-carboxamide], the Kd came to 6.83 nM.

Regarding `C[C@@H]1CN(c2cc(F)c(-c3ccccc3)cc2NC(=O)c2c[nH]c(=O)cc2C(F)(F)F)C[C@H](C)N1C` [Example 146, N-[4-fluoro-5-phenyl-2-[(3R,5S)-3,4,5-trimethylpiperazin-1-yl]phenyl]-6-oxo-4-(trifluoromethyl)-1H-pyridine-3-carboxamide], the Kd came to 6.02 nM.

For `C[C@@H]1CN(c2cc(F)c(-c3ccc(Cl)cc3)cc2NC(=O)c2c[nH]c(=O)cc2C(F)(F)F)C[C@H](C)N1C` [Example 147, N-[5-(4-chlorophenyl)-4-fluoro-2-[(3R,5S)-3,4,5-trimethylpiperazin-1-yl]phenyl]-6-oxo-4-(trifluoromethyl)-1H-pyridine-3-carboxamide], the Kd stood at 4.44 nM.
